Earlier results on one molecule are cited in patent EP1541129A1, “Pharmaceutical effervescent formulation comprising amoxycillin and clavulanic acid” (Cimex AG, priority 2003, dated 2005).

For this series the following is noted: freely water-soluble.

In the case of `O=C(O)[C@H]1/C(=C/CO)O[C@@H]2CC(=O)N21` [Potassium clavulanate, potassium clavulanate], the solubility in water entry is recorded as “about 1 part of water for 1 part of solute”.
